{"source": "ChEMBL document CHEMBL5604062", "about": "“ASAP - ZIKV NS2B-NS3 protease fluorescence dose response” (2024)", "note": "Several values for one entry are separate records, joined by “and”; a condition that tells them apart may be missing. Identical values can stand only once."}
{"molecular_target": "Nonstructural protein 3 (Zika virus, UniProt A0A024AXB9)", "sequence (A0A024AXB9 whole entry)": "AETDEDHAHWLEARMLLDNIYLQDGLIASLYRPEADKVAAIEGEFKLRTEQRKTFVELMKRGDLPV", "test": "Functional biochemical assay to identify treatments for viral infectious disease that targets Zika NS2B-NS3 protease. Utilizing a direct enzyme activity measurement method, reading the fluorescence intensity is used to characterize the relative potency of inhibitors as IC50.", "set-up": "species or system PRVABC59"}
{"smiles": "O=C(Nc1cc(Cl)cc(C(=O)Nc2nc([C@H]3CCCN3)cc(=O)[nH]2)c1)OCc1ccccc1", "IC50": "92 µM"}
{"smiles": "O=C(Nc1ccc2c(c1)CNC2)c1cc(Cl)cc2[nH]c(CCc3cccnc3)nc12", "IC50": "0.144 µM"}
{"smiles": "CC(C)CNC(=O)[C@H](Nc1ccc2c(c1)CNC2)c1cc(Cl)cc2[nH]ncc12", "IC50": "0.075 µM and 0.054 µM"}
{"smiles": "CNC(=O)[C@H](Nc1cccc(N)n1)c1cc(Cl)cc(CN)c1", "IC50": "> 99.5 µM"}
{"smiles": "O=c1ccc(N2CCN(Cc3c[nH]c4ccccc34)CC2)c[nH]1", "IC50": "> 99.5 µM"}
{"smiles": "Cc1c(C(=O)Nc2cccc(CN)c2)cc(C2CC2)n1C", "IC50": "> 99.5 µM"}
{"smiles": "NCc1cccc(NC(=O)[C@H](NS(=O)(=O)C[C@H]2COCCO2)c2ccc(OCc3ccccc3)cc2)c1", "IC50": "> 99.5 µM"}
{"smiles": "CC(=O)Nc1cccc(C(=O)Nc2ccc3c(c2)CNC3)n1", "IC50": "> 25 µM"}
{"smiles": "NCCc1cc(C(=O)Nc2cc(-c3cccnc3)ccn2)no1", "IC50": "> 25 µM"}
{"smiles": "O=C(Nc1ccc(-c2nnn[nH]2)cc1)c1cc(Cl)cc(C2CC2)c1", "IC50": "> 99.5 µM"}
{"smiles": "Cc1cc(C(=O)Nc2cc(-c3cccnc3)ccn2)nn1CCN", "IC50": "> 25 µM"}
{"smiles": "Cn1ncc(CN2CCC([C@H](NC(=O)OCc3ccccc3)C(=O)Nc3cccc(CN)c3)CC2)n1", "IC50": "> 99.5 µM"}
{"smiles": "NCc1cc(NC(=O)c2cc(Cl)cc(NC(=O)OCc3ccccc3)c2)cc(-c2cccc(CC(=O)O)c2)c1", "IC50": "39.6 µM"}
{"smiles": "O=C1OCc2ccc(NC(=O)c3cc(F)cc4c3CCNC4)cc21", "IC50": "> 25 µM"}
{"smiles": "CNCc1ccc(NC(=O)c2cc(Cl)cc3[nH]ncc23)cc1", "IC50": "4.34 µM"}
{"smiles": "NCc1cccc(NC(=O)[C@H](NC(=O)OCc2ccccc2)c2ccc(OCc3ccncn3)cc2)c1", "IC50": "83 µM"}
{"smiles": "C=CC[C@H](Nc1cccc(C2(C(=O)O)CCC2)c1)c1cc(Cl)cc(NC(=O)OCc2ccccc2)c1", "IC50": "33.8 µM"}
{"smiles": "COCCNC(=O)[C@H](Nc1cccc(-c2nn[nH]n2)c1)c1cc(Cl)cc(NC(=O)OCc2ccccc2)c1", "IC50": "> 99.5 µM"}
{"smiles": "CCOc1ccc([C@@H](NC(=O)OCc2ccccc2)C(=O)Nc2cccc(CN)c2)cc1", "IC50": "> 99.5 µM"}
{"smiles": "O=C(Nc1cc(Cl)cc(-c2ccn3c(C(=O)O)cnc3c2)c1)OCc1ccccc1", "IC50": "> 99.5 µM"}
{"smiles": "O=C(Nc1cc(Cl)cc(C(=O)Nc2ccc([C@@H]3C[C@H]3C(=O)O)cc2)c1)OCc1ccccc1", "IC50": "44.3 µM"}
{"smiles": "CC(C)NC(=O)[C@H](Nc1ccc2c(c1)CNC2)c1cc(Cl)cc2[nH]c(-c3ccccc3)nc12", "IC50": "0.042 µM and 0.019 µM and 0.054 µM and 0.033 µM and 0.016 µM and 0.069 µM"}
{"smiles": "Cc1cc(C(=O)N[C@H](CC(=O)Nc2cccc(CN)c2)c2ccc(OCc3ccccc3)c(Br)c2)sn1", "IC50": "6.83 µM"}
{"smiles": "C[C@@H]1c2cccnc2CCN1Cc1cccc(CN(C)C)c1", "IC50": "> 99.5 µM"}
{"smiles": "COC(=O)c1cc(Cl)ccc1NS(=O)(=O)c1ccc(Oc2ccccc2Cl)nc1", "IC50": "> 99.5 µM"}
{"smiles": "COc1ncc(Cl)cc1C(=O)Nc1ccc2c(c1)CNC2", "IC50": "2.58 µM"}
{"smiles": "C=C[C@H]1NCc2cc(NC(=O)c3cc(F)cc4[nH]ncc34)ccc21", "IC50": "0.359 µM"}
{"smiles": "O=C(Nc1cnc2c(c1)CNCC2)c1cc(Cl)cc2[nH]ncc12", "IC50": "0.366 µM"}
{"smiles": "CC(C)(C)OC(=O)NCc1cc(Br)cc(NC(=O)c2cc(Cl)cc(NC(=O)OCc3ccccc3)c2)c1", "IC50": "> 99.5 µM"}
{"smiles": "O=C(Nc1ccc2c(c1)CNC2)c1cc2ncccc2s1", "IC50": "> 25 µM"}
{"smiles": "CC(C)n1cc(C(=O)Nc2cc(-c3cccnc3)ccn2)cn1", "IC50": "> 25 µM"}
{"smiles": "Nc1nc2c(Br)cc(C(=O)Nc3ccc4c(c3)CNC4)cc2s1", "IC50": "5.07 µM"}
{"smiles": "CNC(=O)[C@H](Nc1cc(Cl)cc(NC(=O)OCc2ccccc2)c1)c1cccc(-c2nn[nH]n2)c1", "IC50": "> 99.5 µM"}
{"smiles": "CNc1ncc(C(F)(F)F)cc1-c1ccc2[nH]c(C(=O)O)cc2c1", "IC50": "> 99.5 µM"}
{"smiles": "CNC(=O)[C@H](Nc1cc(Cl)cc(NC(=O)OCc2ccccc2)c1)c1cccc(CN)c1", "IC50": "6.31 µM"}
{"smiles": "CN(C)c1ccc(/C=C/C(=O)C(=O)N2CCOCC2)cc1", "IC50": "83.2 µM"}
{"smiles": "NCc1cccc(NC(=O)[C@@H](NS(=O)(=O)c2ccccc2F)c2ccc(OCc3ccccc3)cc2)c1", "IC50": "99 µM"}
{"smiles": "Cn1nc(NC(=O)[C@@H](NC(=O)OCc2ccccc2)c2ccc(OCc3ccccc3)cc2)c2c1CNC2", "IC50": "> 99.5 µM"}
{"smiles": "O=C(O)c1cc(Oc2ccc(F)cc2)c(F)cc1NS(=O)(=O)c1ccc(Oc2ccccc2Cl)cc1", "IC50": "3.67 µM"}
{"smiles": "NCc1ccc(COc2ccc(-c3ccc(N)nc3)c3c2OB(O)CC3)cc1", "IC50": "> 99.5 µM"}
{"smiles": "CNCCS(=O)(=O)N1CCC([C@H](NC(=O)OCc2ccccc2)C(=O)Nc2cccc(CN)c2)CC1", "IC50": "> 99.5 µM"}
{"smiles": "NC(=O)c1cccc(NC(=O)[C@@H](NC(=O)c2ccc(Oc3ccc(C(F)(F)F)cc3)cc2)c2ccc(OCc3ccccc3)cc2)c1", "IC50": "> 99.5 µM"}
{"smiles": "O=C(NCC(F)F)[C@H](Nc1ccc2c(c1)CNC2)c1cccc2c1CCC2", "IC50": "3.62 µM"}
{"smiles": "COC(=O)c1cc(Cl)ccc1NS(=O)(=O)c1ccc(Oc2ccccc2Cl)cc1", "IC50": "> 99.5 µM"}
{"smiles": "c1ccc2[nH]c(CC3CCN(Cc4nccs4)CC3)nc2c1", "IC50": "> 99.5 µM"}
{"smiles": "N#C[C@H](Nc1ccc(CCC(=O)O)cn1)c1cc(Cl)cc(C2CC2)c1", "IC50": "> 99.5 µM"}
{"smiles": "O=C(Nc1cc(-c2cccnc2)ccn1)c1cn2c(n1)CCC2", "IC50": "> 25 µM"}
{"smiles": "O=C(O)[C@@H]1CCCC[C@H]1NS(=O)(=O)c1ccc(Oc2ccccc2Cl)cc1", "IC50": "> 99.5 µM"}
{"smiles": "CC(C)c1nc2c(C(=O)Nc3ccc4c(c3)CNC4)cc(Br)cc2[nH]1", "IC50": "0.316 µM"}
{"smiles": "C(#C[C@H](Nc1ccc2c(c1)CNC2)c1cccc2[nH]ncc12)c1ccccc1", "IC50": "> 25 µM"}
{"smiles": "N[C@H]1CCN(c2ccc(NC(=O)c3cc(Cl)cc(NC(=O)OCc4ccccc4)c3)cc2)C1", "IC50": "7.72 µM"}
{"smiles": "Cc1nnc(CSc2ncnc3sccc23)o1", "IC50": "> 99.5 µM"}
{"smiles": "NCc1cc(Cl)ccc1NS(=O)(=O)c1ccc(Oc2ccccc2Cl)cc1", "IC50": "> 99.5 µM"}
{"smiles": "C[C@@H](N)c1cccc(NC(=O)[C@H]2[C@H]3CCCCC[C@H]3[C@H]2NC(=O)OCc2ccccc2)c1", "IC50": "13.1 µM and 12.9 µM"}
{"smiles": "O=C(Nc1cc(Cl)cc(C(=O)N[C@]2(c3nnn[nH]3)CCOC2)c1)OCc1ccccc1", "IC50": "> 99.5 µM"}
{"smiles": "NCc1cccc(NC(=O)[C@@H](NC(=O)OCc2ccccc2)c2ccc(-c3cccc4c3CCO4)cc2)c1", "IC50": "14 µM"}
{"smiles": "CC(C)Oc1cc(COc2cccnc2F)nc(N2CCNCC2)n1", "IC50": "> 99.5 µM"}
{"smiles": "O=C(N[C@@H](C(=O)Nc1ncc([C@H]2CCCN2)s1)c1ccc(OCc2ccccc2)cc1)OCc1ccccc1", "IC50": "> 99.5 µM"}
{"smiles": "Cn1ncc2c(C(=O)Nc3ccc4c(c3)CNC4)cc(Cl)cc21", "IC50": "0.047 µM and 0.027 µM"}
{"smiles": "Cc1ccc([C@H]2[C@H](C)CN2C(=O)c2ccc(C(F)(F)CN)cc2)cc1", "IC50": "> 99.5 µM"}
{"smiles": "O=C(Nc1ccc2c(c1)CNC2)c1cc2ccccc2[nH]1", "IC50": "24.4 µM"}
{"smiles": "O=C(Nc1cc(Cl)cc(C(=O)Nc2ncc([C@H]3CCCN3)s2)c1)OCc1ccccc1", "IC50": "> 99.5 µM"}
{"smiles": "CCC1([C@H](NC(=O)OCc2ccccc2)C(=O)Nc2cccc(CN)c2)CCCCC1", "IC50": "> 99.5 µM"}
{"smiles": "NCc1cccc(NC(=O)[C@H](NC(=O)COc2ccccc2)c2ccc(OCc3ccccc3)cc2)c1", "IC50": "26.5 µM"}
{"smiles": "NCc1ccc(C#CCO)c(NC(=O)c2cc(Cl)cc(NC(=O)OCc3ccccc3)c2)c1", "IC50": "30.6 µM"}
{"smiles": "O=C(Nc1cc(-c2cccnc2)ccn1)c1cc2n(n1)CCS2(=O)=O", "IC50": "> 25 µM"}
{"smiles": "O=C(CSc1cccc(Br)c1)Nc1ccc2c(c1)CNC2", "IC50": "> 99.5 µM"}
{"smiles": "O=C(Nc1ccc2c(c1)CNC2)N1C[C@H](C2CC2)C[C@@H]1C1CC1", "IC50": "> 25 µM"}
{"smiles": "CN(C)c1nc(-c2cc(F)cc(C(=O)Nc3ccc4c(c3)CNC4)c2)cs1", "IC50": "0.146 µM"}
{"smiles": "Cc1c(C(=O)Nc2cc([C@H]3CCOC3)ccn2)cc(C2CC2)n1C", "IC50": "0.177 µM and 0.082 µM and 0.137 µM"}
{"smiles": "OC[C@H](Cc1cccnc1)NCc1c[nH]c2ccccc12", "IC50": "> 99.5 µM"}
{"smiles": "O=C(Nc1ccc2c(c1)CNC2)c1cc(Cl)cc2[nH]c(-c3cnc(C4CC4)o3)nc12", "IC50": "0.05 µM and 0.027 µM"}
